Results published in patent US9499495B2, “Quinazolines and azaquinazolines as dual inhibitors of RAS/RAF/MEK/ERK and PI3K/AKT/PTEN/mTOR pathways” (Asana Biosciences, LLC, priority 2013, dated 2016).

Experiments:
[1] = target: T1, B-RAFV600E (Homo sapiens, UniProt P15056, V600E); test: B-RAFV600E radiometric assay; assay type: biochemical; conditions: read-out: Kinase assay B-Raf
T1 construct: purchased Millipore, USA 14-557
Method in brief: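 B-RAFV600E was preincubated 45 min at rt with compound in 1% DMSO. MEK-K97M (0.5 μg), 5 μM final cold ATP and [γ-32P]ATP were then added for 2 h at rt. Phosphorylated MEK was captured on P81 paper and scintillation-counted; IC50 came from a sigmoidal dose-response fit.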

[2] = target: T2, mTOR kinase (Homo sapiens, UniProt P42345); test: mTOR kinase TR-FRET assay; assay type: biochemical
T2 construct: purchased Millipore, US
T2 sequence (P42345 1362-2549 limits assumed): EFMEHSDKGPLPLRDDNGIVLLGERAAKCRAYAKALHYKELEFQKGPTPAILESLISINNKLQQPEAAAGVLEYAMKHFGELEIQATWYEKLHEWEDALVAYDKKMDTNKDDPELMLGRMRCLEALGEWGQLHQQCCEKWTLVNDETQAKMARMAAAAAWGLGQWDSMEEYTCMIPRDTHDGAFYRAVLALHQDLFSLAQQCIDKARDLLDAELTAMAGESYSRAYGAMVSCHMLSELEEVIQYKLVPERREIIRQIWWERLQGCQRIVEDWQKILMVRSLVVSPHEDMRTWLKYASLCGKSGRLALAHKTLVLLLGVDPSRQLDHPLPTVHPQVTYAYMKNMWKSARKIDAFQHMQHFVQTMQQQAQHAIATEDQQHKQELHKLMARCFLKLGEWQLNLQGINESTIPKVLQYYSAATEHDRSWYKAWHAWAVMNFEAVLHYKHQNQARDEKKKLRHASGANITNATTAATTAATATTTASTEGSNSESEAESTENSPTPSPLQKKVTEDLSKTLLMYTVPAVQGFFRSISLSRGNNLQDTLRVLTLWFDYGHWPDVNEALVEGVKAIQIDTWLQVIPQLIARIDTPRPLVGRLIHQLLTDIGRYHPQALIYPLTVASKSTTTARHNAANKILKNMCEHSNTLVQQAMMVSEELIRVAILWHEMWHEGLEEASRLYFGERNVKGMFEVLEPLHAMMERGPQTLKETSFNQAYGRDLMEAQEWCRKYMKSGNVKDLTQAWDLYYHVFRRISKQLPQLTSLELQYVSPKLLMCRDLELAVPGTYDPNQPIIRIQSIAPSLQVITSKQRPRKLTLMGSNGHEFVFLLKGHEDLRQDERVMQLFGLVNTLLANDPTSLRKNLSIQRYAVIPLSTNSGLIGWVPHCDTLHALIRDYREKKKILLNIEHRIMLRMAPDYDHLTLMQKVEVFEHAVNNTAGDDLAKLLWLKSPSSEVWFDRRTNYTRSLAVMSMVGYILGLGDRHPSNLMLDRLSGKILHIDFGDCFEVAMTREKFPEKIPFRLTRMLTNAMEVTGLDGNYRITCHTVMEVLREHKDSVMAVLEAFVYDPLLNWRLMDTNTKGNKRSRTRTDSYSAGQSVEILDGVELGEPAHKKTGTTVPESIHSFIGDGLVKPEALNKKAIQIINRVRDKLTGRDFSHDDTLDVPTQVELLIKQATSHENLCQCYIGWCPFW
Method in brief: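 TR-FRET with ULight-p70 S6K (Thr 389) peptide (50 nM) and 20 μM ATP in 50 mM HEPES pH 7.5, 1 mM EGTA, 3 mM MnCl2; compound pre-incubated with enzyme before substrate addition, reaction at rt, EDTA-stopped. Eu anti-phospho antibody read 665/615 nm; IC50 from sigmoidal dose-response fit.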

[3] = test system: pERK in A375 cells; test: In Cell Western (ICW) assay, pERK in A375 cells; assay type: cell-based; conditions: Homo sapiens, A-375, 3 h treatment
Method in brief: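 RKO or A375 cells were exposed to compounds for 3 h at 37 °C, then fixed and stained in-cell with antibodies to pERK1/2 (T202/Y204), pS6RP or pAKT T308, followed by a Eu-labelled secondary. Time-resolved fluorescence (340/615 nm) was normalized to Hoechst, and IC50 values were fitted sigmoidally against DMSO as 0% inhibition.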

[4] = test system: A375 cells; test: XTT assay for cell viability, A375 cells; assay type: cell-based; conditions: Homo sapiens, A-375, 72 h
Method in brief: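 RKO and A375 cells seeded at 1000-2000/well overnight, then exposed to compound for 72 h at 37° C., 5% CO2. XTT (1 mg/ml)/PMS (25 μM) added for 2-3 h; absorbance at 450 nm. Growth relative to DMSO control (100%); GI50 from sigmoidal dose-response fit.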

[5] = test system: pERK in RKO cells; test: In Cell Western (ICW) assay, pERK in RKO cells; assay type: cell-based; conditions: Homo sapiens, 3 h treatment
Description: (§1) Cell lines A375, A2058 and RKO obtained from the ATCC as provided above, were grown, and after attaining ˜80% confluency were trypsinized, centrifuged and resuspended in fresh media. The cells were seeded at the specified density (20,000 to 50,000) in a 96-well format black-well clear bottom plate (Corning) and incubated overnight at 37° C. in a 5% CO2 incubator. The next day, compound dilutions of test compounds were prepared in 100% DMSO followed by dilutions in respective media. Treatment of test compounds was performed for 3 h at 37° C. in 5% CO2 incubator. Following 3 h drug treatment, the conditional media was discarded and the cells were washed once with cPBS (PBS containing 0.1% magnesium chloride hexahydrate and 0.1% anhydrous calcium chloride) and fixed with 4% paraformaldehyde in cPBS for 1 h at rt. After fixing, the cells were given three washes using cPBST (cPBS containing 0.1% Triton™ X-100 reagent) and then blocked using blocking solution (5% skimmed milk powder or 5% BSA prepared in cPBST) for 2 h at rt with shaking at 300 rpm. The cells were again washed thrice with cPBST and incubated with primary antibody phospho-p44/42 MAPK(Erk1/2)(Thr202/204) antibody (Cell Signaling, Catalog # 9101L), phospho S6 ribosomal protein (Cell Signaling, Catalog #4858L), phospho AKT (Thr 308) (Cell Signaling, Catalog #9275) or phospho AKT (Ser 473) (Cell Signaling, Catalog #4060L) in specified dilutions (1:500-1:2500), prepared in respective blocking solutions, in a racker overnight at 4° C. The next day, the cells were washed with 1× Delfia® wash buffer (4×1 wash) and incubated with secondary antibody (Delfia®-Eu-N1 labeled anti-rabbit antibody; PerkinElmer, Catalog #AD0105; dilutions: 1:2000 to 1:6000 in Delfia® assay buffer (PerkinElmer, Catalog #1244-111)) for 2 h at rt in the dark at 300 rpm. The cells were then given four washes with 1× Delfia® wash buffer and incubated with Wallac Delfia® Enhancement solution (100 μL; PerkinElmer, Catalog #1244-105) for 20 min at rt in the dark at 300 rpm. The fluorescence emission was then read at 615 nm with an excitation wavelength of 340 nm using a Victor V5 Fluorometer (Perkin Elmer, US). The cells were then washed once with 1×cPBS and incubated with 100 μL of 0.5 mg/mL of Hoechst 33258 dye prepared in cPBS and read at 460 nm with 355 nm excitation, thereby evaluating the correction factor.
(§2) The % inhibition for the test compounds of formula (I) (new chemical entities (NCEs)) was calculated keeping DMSO control as 0% and the IC50 values were determined using sigmoidal dose response curve fit in GraphPad Prism® v5 software.

[6] = test system: RKO cells; test: XTT assay for cell viability, RKO cells; assay type: cell-based; conditions: Homo sapiens, 72 h
Description: Cell lines (A375 ATCC No. CRL-1619, A2058 ATCC No. CRL-11147 and RKO ATCC No. CRL-2577, American Type Culture Collection (ATCC), Manassas Va.) once attaining ˜80% confluency were trypsinized, centrifuged and resuspended in fresh media. Cells (1000-2000/per well) were seeded in 96-well plate and incubated over-night at 37° C. in a 5% CO2 incubator. Compound dilutions were prepared in 100% DMSO followed by dilutions in the respective media. The cells were treated with NCEs for 72 h at 37° C. in 5% CO2 incubator. After 72 h, freshly prepared XTT (1 mg/ml)/PMS (25 μM) solution was added, incubated for 2 to 3 h at 37° C. and the absorbance was measured at 450 nm using an ELISA plate reader. Keeping DMSO control as 100%, the effect of the compound to inhibit the cell proliferation was calculated and the GI50 values were determined using sigmoidal dose response curve fit in GraphPad Prism® v5 software.

[7] = test system: pS6RP in RKO cells; test: In Cell Western (ICW) assay, pS6RP in RKO cells; assay type: cell-based; conditions: Homo sapiens, 3 h treatment
Description: as §1, §2

[8] = target: T3, PI3Kα (Homo sapiens, UniProt P42336); test: PI3 Kinase alpha TR-FRET assay; assay type: biochemical
T3 construct: made in house; host or cells: SF9 cells
T3 sequence (P42336 whole entry, species assumed): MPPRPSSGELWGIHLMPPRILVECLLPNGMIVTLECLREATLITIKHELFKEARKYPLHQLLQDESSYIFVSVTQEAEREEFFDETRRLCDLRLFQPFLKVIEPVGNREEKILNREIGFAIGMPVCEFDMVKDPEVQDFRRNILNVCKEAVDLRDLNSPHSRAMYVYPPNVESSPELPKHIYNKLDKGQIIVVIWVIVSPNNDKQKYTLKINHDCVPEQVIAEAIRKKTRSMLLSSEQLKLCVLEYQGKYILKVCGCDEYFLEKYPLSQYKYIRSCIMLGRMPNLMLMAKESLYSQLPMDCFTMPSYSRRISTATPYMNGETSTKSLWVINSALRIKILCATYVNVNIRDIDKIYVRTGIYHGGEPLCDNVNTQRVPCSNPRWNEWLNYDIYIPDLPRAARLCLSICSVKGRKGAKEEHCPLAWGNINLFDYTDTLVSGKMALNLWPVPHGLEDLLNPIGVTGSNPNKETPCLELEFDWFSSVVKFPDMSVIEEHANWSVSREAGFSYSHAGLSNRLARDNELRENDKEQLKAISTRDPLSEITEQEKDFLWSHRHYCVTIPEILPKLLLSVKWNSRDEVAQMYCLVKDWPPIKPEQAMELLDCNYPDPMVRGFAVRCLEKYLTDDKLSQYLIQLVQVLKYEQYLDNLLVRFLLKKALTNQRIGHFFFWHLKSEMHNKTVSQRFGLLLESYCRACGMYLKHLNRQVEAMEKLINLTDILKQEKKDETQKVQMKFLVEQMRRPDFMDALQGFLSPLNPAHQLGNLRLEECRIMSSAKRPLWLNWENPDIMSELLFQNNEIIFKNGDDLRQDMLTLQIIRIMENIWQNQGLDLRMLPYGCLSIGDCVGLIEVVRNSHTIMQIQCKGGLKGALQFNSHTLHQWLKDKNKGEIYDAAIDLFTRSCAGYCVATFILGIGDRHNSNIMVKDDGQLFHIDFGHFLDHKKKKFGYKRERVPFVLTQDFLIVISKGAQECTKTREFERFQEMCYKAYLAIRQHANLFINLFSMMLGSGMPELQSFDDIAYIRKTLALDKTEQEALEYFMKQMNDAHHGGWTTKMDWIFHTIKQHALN
T3 sequence (P27986 whole entry partner, species assumed): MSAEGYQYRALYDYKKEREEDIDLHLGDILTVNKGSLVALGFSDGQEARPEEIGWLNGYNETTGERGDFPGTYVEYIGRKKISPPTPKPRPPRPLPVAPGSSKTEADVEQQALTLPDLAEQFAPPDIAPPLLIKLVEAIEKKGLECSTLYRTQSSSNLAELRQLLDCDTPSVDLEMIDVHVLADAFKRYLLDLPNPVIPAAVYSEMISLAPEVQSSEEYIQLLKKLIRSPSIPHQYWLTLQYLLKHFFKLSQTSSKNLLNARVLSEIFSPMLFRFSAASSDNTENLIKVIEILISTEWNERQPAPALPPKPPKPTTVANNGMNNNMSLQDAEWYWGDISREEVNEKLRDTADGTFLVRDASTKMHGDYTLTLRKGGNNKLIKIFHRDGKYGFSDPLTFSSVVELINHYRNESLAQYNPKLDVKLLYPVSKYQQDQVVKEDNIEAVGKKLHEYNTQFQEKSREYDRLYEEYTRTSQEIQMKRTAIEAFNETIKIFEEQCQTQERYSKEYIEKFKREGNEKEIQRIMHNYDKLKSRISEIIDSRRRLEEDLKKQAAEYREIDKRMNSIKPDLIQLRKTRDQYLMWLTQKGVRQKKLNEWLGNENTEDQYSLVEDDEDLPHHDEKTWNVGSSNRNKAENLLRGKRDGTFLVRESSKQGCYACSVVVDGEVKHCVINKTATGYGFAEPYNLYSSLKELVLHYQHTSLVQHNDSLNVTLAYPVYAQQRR
Description: Compound inhibition for PI3Kα was determined in a homogeneous TR-FRET assay using a PI3Kα assay kit (Millipore, US, Catalog #33-016). The PI3 kinase catalyzes phosphorylation of […] (PIP2) to phosphatidylinositol 3,4,5-trisphosphate (PIP3) in the presence of ATP and Mg^2+. The PIP3 product is detected by displacement of biotin-PIP3 from an energy transfer complex consisting of Europium labeled anti-GST monoclonal antibody, a GST-tagged pleckstrin homology (PH) domain, biotinylated PIP3 and Streptavidin-Allophycocyanin (APC). Excitation of Europium in the complex results in an energy transfer to the APC and a fluorescence emission at 665 nm.
Compounds tested were dissolved in DMSO and directly distributed into 384-well plates at a volume of 0.5 μL. P110/P85a/PIP2 mixture (14.5 μL) was added to compound wells and incubated for 30 min at rt […]. P110/P85a was expressed in SF9 cells and purified in-house. 5 ng P110/P85a was used in the assay. The kinase reaction was started by the addition of ATP. The assay concentrations of both PIP2 and ATP were 40 μM. The reaction mixture was incubated for 30 min and was terminated by the addition of stop mix and detection mix. Fluorescence was measured at 615 and 665 nm upon excitation at 340 nm in a Victor V5 fluorometer (Perkin Elmer, US). The fluorescence emission ratio at 665 to 615 nm, proportional to the kinase activity, was plotted against the compound concentration to generate dose-response curves and IC50 values were determined.

T1 sequence (P15056 416-766 V600E limits assumed): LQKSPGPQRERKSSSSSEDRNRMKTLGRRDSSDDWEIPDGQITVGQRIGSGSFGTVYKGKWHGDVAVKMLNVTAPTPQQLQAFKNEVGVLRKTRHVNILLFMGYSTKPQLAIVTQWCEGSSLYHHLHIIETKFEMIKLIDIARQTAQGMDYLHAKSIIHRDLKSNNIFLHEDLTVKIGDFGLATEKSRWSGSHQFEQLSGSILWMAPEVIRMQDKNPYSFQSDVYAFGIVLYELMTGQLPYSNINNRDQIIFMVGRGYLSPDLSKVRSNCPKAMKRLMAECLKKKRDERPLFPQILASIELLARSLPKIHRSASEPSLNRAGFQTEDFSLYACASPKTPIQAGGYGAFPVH

SMILES	IC50 [1]	IC50 [2]	IC50 [3]	IC50 [4]	IC50 [5]	IC50 [6]	IC50 [7]	IC50 [8]
CNC(=O)Nc1ccc(-c2nc(N3CCOCC3)c3cc(-c4cccc(NS(=O)(=O)c5c(F)cccc5F)c4F)cc(OC)c3n2)cc1 [Example 1, 2,6-Difluoro-N-(2-fluoro-3-(8-methoxy-2-(4-(3-methylureido)phenyl)-4-morpholinoquinazolin-6-yl)phenyl)benzenesulfonamide]	1 to 100 nM	1 to 100 nM	100 to 1000 nM	100 to 1000 nM	100 to 1000 nM	1000 to 10000 nM	–	–
COc1cc(-c2cccc(NS(=O)(=O)CCCF)c2F)cc2c(N3CCOCC3)nc(-c3cnc4[nH]ccc4c3)nc12 [Example 40, 3-fluoro-N-(2-fluoro-3-(8-methoxy-4-morpholino-2-(1H-pyrrolo[2,3-b]pyridin-5-yl)quinazolin-6-yl)phenyl)propane-1-sulfonamide]	1 to 100 nM	1 to 100 nM	1 to 100 nM	100 to 1000 nM	–	–	100 to 1000 nM	–
CC(C)Oc1cc(-c2cccc(NS(=O)(=O)CCCF)c2F)cc2c(N3CCOC[C@H]3C)nc(-c3cnc(N)nc3)nc12 [Example 64, (R)-N-(3-(2-(2-aminopyrimidin-5-yl)-8-isopropoxy-4-(3-methylmorpholino)quinazolin-6-yl)-2-fluorophenyl)-3-fluoropropane-1-sulfonamide]	1 to 100 nM	100 to 1000 nM	1 to 100 nM	1 to 100 nM	–	–	100 to 1000 nM	–
CCOc1cc(-c2cccc(NS(=O)(=O)CCCF)c2F)cc2c(N3CCOC[C@@H]3C)nc(-c3ccc(N)nc3)nc12 [Example 65, (S)-N-(3-(2-(6-aminopyridin-3-yl)-8-ethoxy-4-(3-methylmorpholino)quinazolin-6-yl)-2-fluorophenyl)-3-fluoropropane-1-sulfonamide]	1 to 100 nM	1 to 100 nM	1 to 100 nM	100 to 1000 nM	–	100 to 1000 nM	100 to 1000 nM	–
COCCOc1cc(-c2cccc(NS(=O)(=O)CCCF)c2F)cc2c(N3CCOCC3)nc(-c3ccc(N)nc3)nc12 [Example 67, N-(3-(2-(6-aminopyridin-3-yl)-8-(2-methoxyethoxy)-4-morpholinoquinazolin-6-yl)-2-fluorophenyl)-3-fluoropropane-1-sulfonamide]	1 to 100 nM	1 to 100 nM	100 to 1000 nM	–	–	1 to 100 nM	100 to 1000 nM	–
COCCOc1cc(-c2cccc(NS(=O)(=O)CCCF)c2F)cc2c(N3CCOCC3)nc(-c3cnc(N)nc3)nc12 [Example 68, N-(3-(2-(2-aminopyrimidin-5-yl)-8-(2-methoxyethoxy)-4-morpholinoquinazolin-6-yl)-2-fluorophenyl)-3-fluoropropane-1-sulfonamide]	1 to 100 nM	1 to 100 nM	1 to 100 nM	–	–	100 to 1000 nM	100 to 1000 nM	–
Nc1cc(C(F)(F)F)c(-c2nc(N3CCOCC3)c3nc(-c4cccc(NS(=O)(=O)c5cc(F)ccc5F)c4F)ccc3n2)cn1 [Example 104, N-(3-(2-(6-amino-4-(trifluoromethyl)pyridin-3-yl)-4-morpholinopyrido[3,2-d]pyrimidin-6-yl)-2-fluorophenyl)-2,5-difluorobenzenesulfonamide]	1 to 100 nM	–	1 to 100 nM	1 to 100 nM	100 to 1000 nM	–	–	1 to 100 nM
CNc1ncc(-c2nc(N3CCOC[C@H]3C)c3cc(-c4cccc(NS(=O)(=O)CCCF)c4F)cc(OC)c3n2)cn1 [Example 136, (R)-3-fluoro-N-(2-fluoro-3-(8-methoxy-2-(2-(methylamino)pyrimidin-5-yl)-4-(3-methylmorpholino)quinazolin-6-yl)phenyl)propane-1-sulfonamide]	1 to 100 nM	100 to 1000 nM	–	–	1 to 100 nM	100 to 1000 nM	–	–
CCOc1cc(-c2cccc(NS(=O)(=O)CCCF)c2F)cc2c(N3CCOC[C@H]3C)nc(-c3cnc(N)nc3)nc12 [Example 137, (R)-N-(3-(2-(2-aminopyrimidin-5-yl)-8-ethoxy-4-(3-methylmorpholino)quinazolin-6-yl)-2-fluorophenyl)-3-fluoropropane-1-sulfonamide]	1 to 100 nM	100 to 1000 nM	1 to 100 nM	100 to 1000 nM	1 to 100 nM	1 to 100 nM	–	–
C[C@@H]1COCCN1c1nc(-c2cnc(N)cc2F)nc2ccc(-c3cccc(NS(=O)(=O)CCCF)c3F)nc12 [Example 140, (R)-N-(3-(2-(6-amino-4-fluoropyridin-3-yl)-4-(3-methylmorpholino)pyrido[3,2-d]pyrimidin-6-yl)-2-fluorophenyl)-3-fluoropropane-1-sulfonamide]	1 to 100 nM	100 to 1000 nM	100 to 1000 nM	100 to 1000 nM	1 to 100 nM	100 to 1000 nM	–	–
